According to PMC11285948, “The effects of CYP2B6 inactivators on the metabolism of ciprofol” (PLOS ONE, 2024):
Values joined by “and” are separate entries in the source; they are usually repeats but may differ in a detail not shown here. Identical values can stand only once. Like-named read-outs stand apart in the source and are kept apart here.

Key:
[1] = Pharmacokinetics of ciprofol in rats pretreated with psoralen, clopidogrel or CMC; assay type: in vivo, rat; conditions: ciprofol 2.4 mg·kg^-1 i.v.; for concentration at 20 min: T 20.00 min; for concentration at 30 min: T 30.00 min; for concentration at 45 min: T 45.00 min; for concentration at 2 min: T 2.00 min; for concentration at 8 min: T 8.00 min; for concentration at 12 min: T 12.00 min; for concentration at 16 min: T 16.00 min
Experimental: 5 μL of IS solution (2.5 μg·mL^-1 D6-ciprofol) was added to 100 μL of plasma and mixed. Then, 300 μL of acetonitrile was added. The mixture was vortexed for 2 min and centrifuged for 10 min, and the supernatant was transferred to an autosampler vial for HPLC-MS/MS detection.
Twenty-four SD rats were randomly and equally divided into three groups: the control group, psoralen group and clopidogrel group. The administration scheme was as follows: the control group received 0.5% carboxy methyl cellulose by gavage (1 mL·200 g^-1), the psoralen group received 27 mg·kg^-1 psoralen by gavage, and the clopidogrel group was gavaged with 7.5 mg·kg^-1 clopidogrel. […] All rats were treated once daily for seven days. Each rat was injected with 2.4 mg·kg^-1 ciprofol via the tail vein 12 h after the end of dosing on Day 7. Rats that received ciprofol injection were placed on a flat and soft insulation pad. Timekeeping began when the rats were in the supine position and lost the righting reflex and ended when the rats could turn to the prone position successfully. The duration of loss of righting reflex (LORR) in each rat was measured. During this period, approximately 300 μL of blood was collected from the inner canthus at 2, 4, 8, 12, 16, 20, 30, 45, and 60 min after ciprofol administration, and the plasma was separated. The plasma was processed and measured as described in Section 2.4.3, and DAS 2.0 software and a noncompartmental model were used to analyse the pharmacokinetic parameters.
IBM SPSS Statistics 27 software was used to analyse the main pharmacokinetic parameters, and GraphPad Prism 8.0.2 software was used for graphical visualization. One-way ANOVA was used, and multiple comparisons were performed using the least significant difference (LSD)-T test, for which P < 0.05 indicated a significant difference.

[2] = Stability of ciprofol QC samples in liver microsome incubation system; assay type: physicochemical; conditions: liver microsomes; for ciprofol found after storage, Autosampler / ciprofol found after storage, Room Temperature: n = 5; for Stability: calculated concentration: single replicates
Experimental: The incubation system was removed from the water bath, and the reaction was terminated immediately by adding 800 μL of reaction termination solution (acetonitrile solution containing 5 μg·mL^-1 D6-ciprofol at 4°C). The mixture was vortexed for 2 min and centrifuged for 15 min, after which the supernatant was transferred to an autosampler vial for HPLC-MS/MS detection.
To investigate the stability of ciprofol under a variety of conditions, three groups of liver microsome QC sample solutions were prepared, and one group was immediately processed and analysed as described in Section 2.4.2. Another group was stored at room temperature for 8 hours before treatment and assessment. The other group was treated and placed in the autosampler (4°C) for 24 h and subsequently analysed. In addition, simulated plasma QC samples were prepared in five groups: one group was processed and measured immediately as described in Section 2.4.3, and another group was placed in the autosampler for 24 h after treatment. The other three groups were placed at room temperature for 8 h, stored at -40°C for 30 d, frozen and thawed three times, respectively, and then processed and detected as described in Section 2.4.3. All the above samples were tested in parallel in five batches.

[3] = SD, rat, plasma, intravenous, 2.4 mg/kg, rats, Clopidogrel group (7.5 mg·kg^-1 gavage daily 7 d), n = 8
[4] = SD, rat, plasma, intravenous, 2.4 mg/kg, rats, Control group (0.5% CMC gavage 7 d), n = 8
[5] = SD, rat, plasma, intravenous, 2.4 mg/kg, rats, Psoralen group (27 mg·kg^-1 gavage daily 7 d), n = 8
[6] = SD, rat, plasma, iv, 2.4 mg/kg, Control (CMC-Na), rats No.1-8 and Mean
[7] = SD, rat, plasma, iv, 2.4 mg·kg^-1, Control (CMC-Na), rats No.1-8 and Mean
[8] = SD, rat, plasma, iv, 6.75 mg/kg, Clopidogrel(6.75mg/kg)group, rats No.1-8 and Mean
[9] = SD, rat, plasma, iv, 27 mg/kg, Psoralen(27mg/kg)group, rats No.1-8 and Mean
[10] = Autosampler for 24 h, QC level H
[11] = Autosampler for 24 h, QC level L
[12] = Autosampler for 24 h, QC level M
[13] = Room - Temperature for 8 h, QC level H
[14] = Room - Temperature for 8 h, QC level L
[15] = Room - Temperature for 8 h, QC level M

## CC(C)c1cccc([C@H](C)C2CC2)c1O [ciprofol]
[1]; Control (CMC-Na), rats No.1-8 and Mean
  Tmax: 2.00 min
[1]; Psoralen(27mg/kg)group, rats No.1-8 and Mean
  Tmax: 2.00 min
[1]; Psoralen(27mg/kg)group, rats No.1-8 and Mean, 27 mg/kg
  CLz: 0.14 L/min/kg and 0.12 L/min/kg and 0.13 L/min/kg
[1]; SD, rat, plasma, Psoralen(27mg/kg)group, rats No.1-8 and Mean, read-out: CLz
  clearance: 130 mL/min/kg
[1]; [3]
  AUC(0-inf): 318 ± 45 ng·h/mL
  AUC(0-t): 296 ± 40.8 ng·h/mL
  Cmax: 1490 ± 292 ng/mL
[1]; SD, rat, plasma, intravenous, 2.4 mg/kg, rats, Clopidogrel group (7.5 mg·kg^-1 gavage daily 7 d), n = 8, read-out: CL (converted)
  clearance: 128 mL/min/kg
[1]; SD, rat, plasma, intravenous, 2.4 mg/kg, rats, Clopidogrel group (7.5 mg·kg^-1 gavage daily 7 d), n = 8, read-out: MRT0-t
  MRT last: 12.6 ± 1.2 min
[1]; SD, rat, plasma, intravenous, 2.4 mg/kg, rats, Clopidogrel group (7.5 mg·kg^-1 gavage daily 7 d), n = 8, read-out: MRT0-∞
  MRT inf: 18.6 ± 6.6 min
[1]; SD, rat, plasma, intravenous, 2.4 mg/kg, rats, Clopidogrel group (7.5 mg·kg^-1 gavage daily 7 d), n = 8, read-out: Vd
  Vd: 3.71 ± 2.03 L/kg
[1]; SD, rat, plasma, intravenous, 2.4 mg/kg, rats, Clopidogrel group (7.5 mg·kg^-1 gavage daily 7 d), n = 8, read-out: t1/2 (converted)
  half-life: 21 ± 13.8 min
[1]; [4]
  AUC(0-inf): 268 ± 35.5 ng·h/mL
  AUC(0-t): 260 ± 35.1 ng·h/mL
  Cmax: 1550 ± 173 ng/mL
[1]; SD, rat, plasma, intravenous, 2.4 mg/kg, rats, Control group (0.5% CMC gavage 7 d), n = 8, read-out: CL (converted)
  clearance: 152 mL/min/kg
[1]; SD, rat, plasma, intravenous, 2.4 mg/kg, rats, Control group (0.5% CMC gavage 7 d), n = 8, read-out: MRT0-t
  MRT last: 10.8 ± 0.6 min
[1]; SD, rat, plasma, intravenous, 2.4 mg/kg, rats, Control group (0.5% CMC gavage 7 d), n = 8, read-out: MRT0-∞
  MRT inf: 13.2 ± 2.4 min
[1]; SD, rat, plasma, intravenous, 2.4 mg/kg, rats, Control group (0.5% CMC gavage 7 d), n = 8, read-out: Vd
  Vd: 3.02 ± 0.72 L/kg
[1]; SD, rat, plasma, intravenous, 2.4 mg/kg, rats, Control group (0.5% CMC gavage 7 d), n = 8, read-out: t1/2 (converted)
  half-life: 13.8 ± 3 min
[1]; [5]
  AUC(0-inf): 315 ± 23.4 ng·h/mL
  AUC(0-t): 299 ± 17.6 ng·h/mL
  Cmax: 1490 ± 200 ng/mL
[1]; SD, rat, plasma, intravenous, 2.4 mg/kg, rats, Psoralen group (27 mg·kg^-1 gavage daily 7 d), n = 8, read-out: CL (converted)
  clearance: 128 mL/min/kg
[1]; SD, rat, plasma, intravenous, 2.4 mg/kg, rats, Psoralen group (27 mg·kg^-1 gavage daily 7 d), n = 8, read-out: MRT0-t
  MRT last: 13.8 ± 1.2 min
[1]; SD, rat, plasma, intravenous, 2.4 mg/kg, rats, Psoralen group (27 mg·kg^-1 gavage daily 7 d), n = 8, read-out: MRT0-∞
  MRT inf: 16.8 ± 3 min
[1]; SD, rat, plasma, intravenous, 2.4 mg/kg, rats, Psoralen group (27 mg·kg^-1 gavage daily 7 d), n = 8, read-out: Vd
  Vd: 2.8 ± 0.46 L/kg
[1]; SD, rat, plasma, intravenous, 2.4 mg/kg, rats, Psoralen group (27 mg·kg^-1 gavage daily 7 d), n = 8, read-out: t1/2 (converted)
  half-life: 15.6 ± 3 min
[1]; [6]
  concentration at 20 min: 159 ng/mL
  concentration at 30 min: 93.3 ng/mL
  concentration at 45 min: 67.3 ng/mL
  Cmax: 1550 ng/mL
[1]; SD, rat, plasma, iv, 2.4 mg/kg, Control (CMC-Na), rats No.1-8 and Mean, read-out: CLz
  clearance: 150 mL/min/kg
[1]; SD, rat, plasma, iv, 2.4 mg/kg, Control (CMC-Na), rats No.1-8 and Mean, read-out: MRT(0-t) (converted)
  MRT last: 10.8 min
[1]; SD, rat, plasma, iv, 2.4 mg/kg, Control (CMC-Na), rats No.1-8 and Mean, read-out: MRT(0-∞) (converted)
  MRT inf: 12.9 min
[1]; SD, rat, plasma, iv, 2.4 mg/kg, Control (CMC-Na), rats No.1-8 and Mean, read-out: Vz
  Vd: 3.02 L/kg
[1]; SD, rat, plasma, iv, 2.4 mg/kg, Control (CMC-Na), rats No.1-8 and Mean, read-out: t1/2z
  half-life: 13.8 min
[1]; [7]
  concentration at 2 min: 1500 ng/mL
  concentration at 8 min: 419 ng/mL
  concentration at 12 min: 312 ng/mL
  concentration at 16 min: 224 ng/mL
[1]; [8]
  concentration at 2 min: 1050 ng/mL
  concentration at 8 min: 406 ng/mL
  concentration at 12 min: 334 ng/mL
  concentration at 16 min: 266 ng/mL
  concentration at 20 min: 193 ng/mL
  concentration at 45 min: 65.7 ng/mL
  Cmax: 1490 ng/mL
[1]; SD, rat, plasma, iv, 6.75 mg/kg, Clopidogrel(6.75mg/kg)group, T 60.00 min, rats No.1-8 and Mean
  concentration at 60 min: 43.3 ng/mL
[1]; SD, rat, plasma, iv, 6.75 mg/kg, Clopidogrel(6.75mg/kg)group, rats No.1-8 and Mean, read-out: CLz
  clearance: 130 mL/min/kg
[1]; SD, rat, plasma, iv, 6.75 mg/kg, Clopidogrel(6.75mg/kg)group, rats No.1-8 and Mean, read-out: MRT(0-t) (converted)
  MRT last: 12.6 min
[1]; [9]
  concentration at 2 min: 1560 ng/mL
  concentration at 8 min: 532 ng/mL
  concentration at 12 min: 374 ng/mL
  concentration at 16 min: 348 ng/mL
  concentration at 20 min: 203 ng/mL
  concentration at 30 min: 145 ng/mL
  Cmax: 1490 ng/mL
[1]; SD, rat, plasma, iv, 27 mg/kg, Psoralen(27mg/kg)group, T 4.00 min, rats No.1-8 and Mean
  concentration at 4 min: 895 ng/mL
[1]; SD, rat, plasma, iv, 27 mg/kg, Psoralen(27mg/kg)group, rats No.1-8 and Mean, read-out: MRT(0-t) (converted)
  MRT last: 13.6 min
[1]; SD, rat, plasma, iv, 27 mg/kg, Psoralen(27mg/kg)group, rats No.1-8 and Mean, read-out: MRT(0-∞) (converted)
  MRT inf: 17 min
[1]; SD, rat, plasma, iv, 27 mg/kg, Psoralen(27mg/kg)group, rats No.1-8 and Mean, read-out: Vz
  Vd: 2.8 L/kg
[1]; SD, rat, plasma, iv, 27 mg/kg, Psoralen(27mg/kg)group, rats No.1-8 and Mean, read-out: t1/2z
  half-life: 15.4 min
[1]; SD, rat, plasma, iv, Clopidogrel(6.75mg/kg)group, rats No.1-8 and Mean, read-out: Tmax (converted)
  Tmax: 2 min
[1]; SD, rat, plasma, iv, Control (CMC-Na), rats No.1-8 and Mean, read-out: Tmax (converted)
  Tmax: 2 min
[1]; SD, rat, plasma, iv, Psoralen(27mg/kg)group, rats No.1-8 and Mean, read-out: Tmax (converted)
  Tmax: 2 min
[2]; QC 2.5 μg·mL^-1, autosampler (4°C) for 24 h after treatment
  ciprofol found after storage, Autosampler: 2.54 ± 0.11 µg/mL
[2]; QC 2.5 μg·mL^-1, room temperature for 8 h
  ciprofol found after storage, Room Temperature: 2.53 ± 0.19 µg/mL
[2]; QC 10 μg·mL^-1, autosampler (4°C) for 24 h after treatment
  ciprofol found after storage, Autosampler: 9.82 ± 0.44 µg/mL
[2]; QC 10 μg·mL^-1, room temperature for 8 h
  ciprofol found after storage, Room Temperature: 10.14 ± 0.62 µg/mL
[2]; QC 75 μg·mL^-1, autosampler (4°C) for 24 h after treatment
  ciprofol found after storage, Autosampler: 72.07 ± 4.83 µg/mL
[2]; QC 75 μg·mL^-1, room temperature for 8 h
  ciprofol found after storage, Room Temperature: 70.43 ± 3.12 µg/mL
[2]; [10]
  Stability: mean calculated concentration: 72.07 µg/mL
  Stability: calculated concentration: 64.85 µg/mL and 72.55 µg/mL and 71.79 µg/mL and 72.70 µg/mL and 78.45 µg/mL
[2]; [11]
  Stability: mean calculated concentration: 2.54 µg/mL
  Stability: calculated concentration: 2.73 µg/mL and 2.56 µg/mL and 2.49 µg/mL and 2.50 µg/mL and 2.43 µg/mL
[2]; [12]
  Stability: mean calculated concentration: 9.82 µg/mL
  Stability: calculated concentration: 9.08 µg/mL and 9.88 µg/mL and 10.27 µg/mL and 9.89 µg/mL and 9.96 µg/mL
[2]; [13]
  Stability: mean calculated concentration: 70.43 µg/mL
  Stability: calculated concentration: 71.38 µg/mL and 72.99 µg/mL and 69.04 µg/mL and 65.67 µg/mL and 73.05 µg/mL
[2]; [14]
  Stability: mean calculated concentration: 2.53 µg/mL
  Stability: calculated concentration: 2.63 µg/mL and 2.49 µg/mL and 2.51 µg/mL and 2.26 µg/mL and 2.77 µg/mL
[2]; [15]
  Stability: mean calculated concentration: 10.15 µg/mL
  Stability: calculated concentration: 9.80 µg/mL and 9.76 µg/mL and 10.83 µg/mL and 10.81 µg/mL and 9.53 µg/mL
